Measurements as given in patent publication US20170037028A1 (BAYER PHARMA AKTIENGESELLSCHAFT, priority 2013, published 2017).

molecular target: T1, GLUT1 (Homo sapiens, UniProt P11166); experiment: Indirect measurement of GLUT1 activity by quantification of intracellular ATP levels (glucose induced ATP increase); format: cell-based; design: endogenous in cells; host or cells: DLD1 or CHO-K1; conditions: read-out: IC50 regarding glucose induced ATP increase (GLUT1 inhibition)
T1 sequence (P11166 1-492): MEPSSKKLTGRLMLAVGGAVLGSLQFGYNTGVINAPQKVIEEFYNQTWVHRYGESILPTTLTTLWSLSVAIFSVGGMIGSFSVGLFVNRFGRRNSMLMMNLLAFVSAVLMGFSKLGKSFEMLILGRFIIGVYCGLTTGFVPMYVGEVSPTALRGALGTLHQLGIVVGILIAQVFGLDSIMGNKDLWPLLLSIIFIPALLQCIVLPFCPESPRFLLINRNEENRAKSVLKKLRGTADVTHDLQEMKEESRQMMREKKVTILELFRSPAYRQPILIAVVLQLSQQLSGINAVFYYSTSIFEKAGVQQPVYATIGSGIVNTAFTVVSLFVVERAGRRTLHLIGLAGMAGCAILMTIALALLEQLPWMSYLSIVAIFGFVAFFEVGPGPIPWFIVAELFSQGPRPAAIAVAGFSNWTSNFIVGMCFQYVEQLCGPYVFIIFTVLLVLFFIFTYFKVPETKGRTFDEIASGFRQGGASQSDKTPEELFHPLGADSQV
In short: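 DLD1 or CHO-K1 cells were starved overnight in glucose-free medium with 1% FCS, then combined with an oxidative phosphorylation inhibitor. GLUT1 activity was read as glucose-induced ATP increase, GLUT2 as fructose-induced. Intracellular ATP was quantified by CellTiter-Glo luminescence.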

IC50 [nM] | SMILES
4.7 | Cc1c(NC(=O)c2cc(C(N)=O)nc3cccc(F)c23)c(C(F)(F)F)nn1Cc1ccc(C#N)cc1F [Example 306, N^4-[1-(4-cyano-2-fluorobenzyl)-5-methyl-3-(trifluoromethyl)-1H-pyrazol-4-yl]-5-fluoroquinoline-2,4-dicarboxamide]
36.9 | COc1cc(C(=O)Nc2c(C)nn(C(C)c3ccccc3)c2C)c2ccccc2n1 (racemic) [Example 1361]
912 | Cc1nn(Cc2ccc(C(=O)N(C)CCN(C)C)cc2)c(C)c1NC(=O)c1cc(C(F)(F)F)nc2ccc(Br)cc12 [Example 1224]
22.7 | Cc1cccc(Cn2nc(C(F)(F)F)c(NC(=O)c3cc(C(N)=O)nc4cccc(F)c34)c2C)c1 [Example 1479]
6.6 | Cc1nn(Cc2ccc(C(=O)Nc3ccccc3)cc2)c(C)c1NC(=O)c1cc(C(F)(F)F)nc2ccc(Br)cc12 [Example 134, 6-bromo-N-{3,5-dimethyl-1-[4-(phenylcarbamoyl)benzyl]-1H-pyrazol-4-yl}-2-(trifluoromethyl)quinoline-4-carboxamide]
4.9 | Cc1cc(Cn2nc(C(F)(F)F)c(NC(=O)c3cc(C(N)=O)nc4cc(F)c(Cl)cc34)c2C)on1 [Example 420, 6-chloro-7-fluoro-N^4-{5-methyl-1-[(3-methyl-1,2-oxazol-5-yl)methyl]-3-(trifluoromethyl)-1H-pyrazol-4-yl}quinoline-2,4-dicarboxamide]
98.2 | Cc1nn(Cc2ccc(C(=O)NC(CO)(CO)CO)cc2)c(C)c1NC(=O)c1cc(C(F)(F)F)nc2ccc(Br)cc12 [Example 1136]
47.8 | COC(=O)[C@@H](NC(=O)c1ccc(Cn2nc(C)c(NC(=O)c3cc(C(F)(F)F)nc4ccc(Br)cc34)c2C)cc1)[C@@H](C)O [Example 1104]
28.7 | Cc1c(NC(=O)c2cc(C(N)=O)nc3ccccc23)c(C(F)(F)F)nn1Cc1ccc(C(C)C)cc1 [Example 1407]
2850 | Cc1nn(Cc2ccc(F)cc2)c(C)c1NC(=O)c1cc(C(F)(F)F)nc2c(C#N)cccc12 [Example 1268]
48.8 | Cc1nn(Cc2ccc(S(C)(=O)=O)cc2)c(C)c1NC(=O)c1cc(C(N)=O)nc2cc(F)ccc12 [Example 1483]
127 | Cc1c(NC(=O)c2cc(C(N)=O)nc3ccc(N4CCN(C)CC4)cc23)c(C(F)(F)F)nn1Cc1ccc(C#N)cc1 [Example 1394]
5.3 | Cc1nn(Cc2ccc(C(=O)N3CCC3)cc2)c(C)c1NC(=O)c1cc(C(F)(F)F)nc2ccc(Br)cc12 [Example 1037]
117 | Cc1nn(Cc2ccc(C(=O)N(C)CCC3(O)CCCC3)cc2)c(C)c1NC(=O)c1cc(C(F)(F)F)nc2ccc(Br)cc12 [Example 1146]
4.3 | Cc1cccc(Cn2nc(C)c(NC(=O)c3cc(C(N)=O)nc4ccc(Br)cc34)c2C)c1 [Example 1477]
228 | Cc1nn(Cc2ccc(C(=O)N[C@H](C)CO)cc2)c(C)c1NC(=O)c1cc(C(F)(F)F)nc2ccc(Br)cc12 [Example 1179]
5.9 | Cc1c(NC(=O)c2cc(C(N)=O)nc3cccc(F)c23)c(C(F)(F)F)nn1Cc1ccccc1C#N [Example 273, N^4-[1-(2-cyanobenzyl)-5-methyl-3-(trifluoromethyl)-1H-pyrazol-4-yl]-5-fluoroquinoline-2,4-dicarboxamide]
2.2 | Cc1nn(CCCc2ccc(C#N)cc2)c(C)c1NC(=O)c1cc(C(N)=O)nc2ccccc12 [Example 347, N^4-{1-[3-(4-cyanophenyl)propyl]-3,5-dimethyl-1H-pyrazol-4-yl}quinoline-2,4-dicarboxamide]
17.1 | CCOC(=O)c1cc(Cn2nc(C)c(NC(=O)c3cc(C(N)=O)nc4cc(F)ccc34)c2C)on1 [Example 1670]
1320 | Cc1cc(C(=O)Nc2c(C)nn(Cc3ccc(F)cc3)c2C)c2cc(C#N)ccc2n1 [Example 1237]
164 | CCc1cc(C(=O)Nc2c(C)nn(Cc3ccc(F)cc3)c2C)c2ccccc2n1 [Example 69, 2-ethyl-N-[1-(4-fluorobenzyl)-3,5-dimethyl-1H-pyrazol-4-yl]quinoline-4-carboxamide]
52.4 | Cc1cc(C(=O)Nc2c(C)nn(Cc3ccc(F)cc3)c2C)c2cccc(Br)c2n1 [Example 53, 8-bromo-N-[1-(4-fluorobenzyl)-3,5-dimethyl-1H-pyrazol-4-yl]-2-methylquinoline-4-carboxamide]

IC50 [nM] | SMILES
275 | Cc1c(NC(=O)c2cc(C(N)=O)nc3ccccc23)c(C(F)(F)F)nn1Cc1ccncc1 [Example 1367]
23.9 | CNC(=O)c1ccc(Cn2nc(C(F)(F)F)c(NC(=O)c3cc(C(F)(F)F)nc4ccc(Br)cc34)c2C)nc1 [Example 1078]
72.7 | CNC(=O)c1nc(Cn2nc(C(F)(F)F)c(NC(=O)c3cc(C(N)=O)nc4cc(F)ccc34)c2C)no1 [Example 1559]
562 | Cc1ccc2nc(C)cc(C(=O)Nc3c(C)nn(Cc4ccc(C(=O)NCCO)cc4)c3C)c2c1 [Example 202, N-(1-{4-[(2-hydroxyethyl)carbamoyl]benzyl}-3,5-dimethyl-1H-pyrazol-4-yl)-2,6-dimethylquinoline-4-carboxamide]
23.4 | Cc1nn(Cc2ccc(S(C)(=O)=O)cc2)c(C)c1NC(=O)c1cc(C(N)=O)nc2cccc(F)c12 [Example 1484]
1.6 | CCc1c(NC(=O)c2cc(C(N)=O)nc3cc(F)c(Cl)cc23)c(C(F)(F)F)nn1Cc1ccc(C#N)cc1 [Example 314, 6-chloro-N^4-[1-(4-cyanobenzyl)-5-ethyl-3-(trifluoromethyl)-1H-pyrazol-4-yl]-7-fluoroquinoline-2,4-dicarboxamide]
19 | Cc1nn(Cc2ccc(F)cc2)c(C)c1NC(=O)c1cc(C(F)(F)F)nc2cc(F)ccc12 [Example 29, 7-fluoro-N-[1-(4-fluorobenzyl)-3,5-dimethyl-1H-pyrazol-4-yl]-2-(trifluoromethyl)quinoline-4-carboxamide]
15 | Cc1c(NC(=O)c2cc(C(F)(F)F)nc3ccc(Br)cc23)c(C(F)(F)F)nn1Cc1ccc(C#N)nc1 [Example 1056]
112 | Cc1c(NC(=O)c2cc(C(N)=O)nc3ccccc23)c(C(F)(F)F)nn1Cc1cc(F)ccc1C#N [Example 1652]
184 | Cc1c(NC(=O)c2cc(C(N)=O)nc3ccccc23)c(C(F)(F)F)nn1Cc1cccc(C(C)O)c1 (racemic) [Example 1644]
891 | Cc1nn(Cc2ccc(C(=O)NCC(N)=O)cc2)c(C)c1NC(=O)c1cc(C(F)(F)F)nc2ccc(Br)cc12 [Example 1223]
97.9 | Cc1nn(Cc2ccc(OC(F)(F)F)cc2)c(C)c1NC(=O)c1cc(C(F)(F)F)nc2c(Cl)cc(Cl)cc12 [Example 60, 6,8-dichloro-N-{3,5-dimethyl-1-[4-(trifluoromethoxy)benzyl]-1H-pyrazol-4-yl}-2-(trifluoromethyl)quinoline-4-carboxamide]
139 | Cc1nn(Cc2ccc(C(=O)NCc3cnn(C)c3)cc2)c(C)c1NC(=O)c1cc(C(F)(F)F)nc2ccc(Br)cc12 [Example 1154]
20 | Cc1ccc(Cn2nc(C)c(NC(=O)c3cc(C(F)(F)F)nc4c(Cl)cc(Cl)cc34)c2C)cc1 [Example 31, 6,8-dichloro-N-[3,5-dimethyl-1-(4-methylbenzyl)-1H-pyrazol-4-yl]-2-(trifluoromethyl)quinoline-4-carboxamide]
86.6 | Cc1nn(Cc2ccc(C(=O)NCc3nccs3)cc2)c(C)c1NC(=O)c1cc(C(F)(F)F)nc2ccc(Br)cc12 [Example 1130]
81.7 | Cc1c(NC(=O)c2cc(S(C)=NC#N)nc3ccccc23)c(C(F)(F)F)nn1Cc1ccc(C#N)cc1 (racemic) [Example 385, (±)-N-[1-(4-cyanobenzyl)-5-methyl-3-(trifluoromethyl)-1H-pyrazol-4-yl]-2-(N-cyano-S-methylsulfinimidoyl)quinoline-4-carboxamide]
1.2 | Cc1nn(Cc2ccc(C#N)cc2)c(C)c1NC(=O)c1cc(C(N)=O)nc2c(F)cc(Cl)cc12 [Example 252, 6-chloro-N^4-[1-(4-cyanobenzyl)-3,5-dimethyl-1H-pyrazol-4-yl]-8-fluoroquinoline-2,4-dicarboxamide]
39.4 | Cc1nn(Cc2ccc(C#N)cc2)c(C(C)C)c1NC(=O)c1cc(C(N)=O)nc2ccccc12 [Example 323, N^4-[1-(4-cyanobenzyl)-5-isopropyl-3-methyl-1H-pyrazol-4-yl]quinoline-2,4-dicarboxamide]
110 | Cc1nn(Cc2ccc(F)cc2)c(C)c1NC(=O)c1ccnc2ccc(Br)cc12 [Example 184, 6-bromo-N-[1-(4-fluorobenzyl)-3,5-dimethyl-1H-pyrazol-4-yl]quinoline-4-carboxamide]
19.8 | CCc1c(NC(=O)c2cc(C(N)=O)nc3cccc(F)c23)c(C(F)(F)F)nn1Cc1ccc(C#N)cc1 [Example 316, N^4-[1-(4-cyanobenzyl)-5-ethyl-3-(trifluoromethyl)-1H-pyrazol-4-yl]-5-fluoroquinoline-2,4-dicarboxamide]
54.9 | Cc1c(NC(=O)c2cc(C(N)=O)nc3ccccc23)c(C(F)(F)F)nn1Cc1ccc(C2CCC2)cc1 [Example 1617]
5.7 | Cc1nn(Cc2ccc(C(=O)Nc3ccccc3C(N)=O)cc2)c(C)c1NC(=O)c1cc(C(F)(F)F)nc2ccc(Br)cc12 [Example 1038]
